Drawing on PubChem BioAssay AID1259407 (Chemical Carcinogenesis Research Information System (CCRIS), 2018), this text covers mutagenic call for 4 compounds.

Active and inactive are the calls of the source. The rule behind the calls is not given here.

The test system of the data set is CCRIS mutagenicity, Ames/micronucleus/aberration tests. Briefly: CCRIS mutagenicity studies. The following applies: Test System: AMES SALMONELLA TYPHIMURIUM
[1] abbreviates: Strain/Indicator: TA97, Metabolic Activation: NONE, Method: PREINCUBATION
The mark [2] stands for this setting: Strain/Indicator: TA98, Metabolic Activation: NONE, Method: PREINCUBATION
The mark [3] stands for this setting: Strain/Indicator: TA98, Metabolic Activation: NONE, Method: STANDARD PLATE.
[4] abbreviates: Strain/Indicator: TA100, Metabolic Activation: NONE, Method: PREINCUBATION
The mark [5] stands for this setting: Strain/Indicator: TA100, Metabolic Activation: NONE, Method: STANDARD PLATE.
The mark [6] stands for this setting: Strain/Indicator: TA1535, Metabolic Activation: NONE, Method: PREINCUBATION

As for `C1OCOCO1`, the mutagenic call is “inactive; negative” (Strain/Indicator: TA97, Metabolic Activation: HAMSTER, LIVER, S-9, AROCLOR 1254 (10 OR 30%), Method: PREINCUBATION); “inactive; negative” under setting [1]; “inactive; negative” (Strain/Indicator: TA97, Metabolic Activation: RAT, LIVER, S-9, AROCLOR 1254 (10 OR 30%), Method: PREINCUBATION); “inactive; negative” (Strain/Indicator: TA98, Metabolic Activation: HAMSTER, LIVER, S-9, AROCLOR 1254 (10 OR 30%), Method: PREINCUBATION); “inactive; negative” under setting [2]; “inactive; negative” under setting [3]. In addition, the mutagenic call is, setting by setting: (Strain/Indicator: TA98, Metabolic Activation: RAT, LIVER, S-9, AROCLOR 1254 (10 OR 30%), Method: PREINCUBATION) “inactive; negative”; (Strain/Indicator: TA98, Metabolic Activation: RAT, LIVER, S-9, AROCLOR 1254, Method: STANDARD PLATE) “inactive; negative”; (Strain/Indicator: TA100, Metabolic Activation: HAMSTER, LIVER, S-9, AROCLOR 1254 (10 OR 30%), Method: PREINCUBATION) “inactive; negative”; under setting [4], “inactive; negative”; under setting [5], “inactive; negative”; (Strain/Indicator: TA100, Metabolic Activation: RAT, LIVER, S-9, AROCLOR 1254 (10 OR 30%), Method: PREINCUBATION) “inactive; negative”. Besides, the mutagenic call (Strain/Indicator: TA100, Metabolic Activation: RAT, LIVER, S-9, AROCLOR 1254, Method: STANDARD PLATE) is “inactive; negative”; the mutagenic call (Strain/Indicator: TA1535, Metabolic Activation: HAMSTER, LIVER, S-9, AROCLOR 1254 (10 OR 30%), Method: PREINCUBATION) was “inactive; negative”; the mutagenic call under setting [6] is “inactive; negative”; the mutagenic call (Strain/Indicator: TA1535, Metabolic Activation: NONE, Method: STANDARD PLATE) was “inactive; negative”; the mutagenic call (Strain/Indicator: TA1535, Metabolic Activation: RAT, LIVER, S-9, AROCLOR 1254 (10 OR 30%), Method: PREINCUBATION) is “inactive; negative”; the mutagenic call (Strain/Indicator: TA1535, Metabolic Activation: RAT, LIVER, S-9, AROCLOR 1254, Method: STANDARD PLATE) is “inactive; negative”. Besides, the mutagenic call (Strain/Indicator: TA1537, Metabolic Activation: NONE, Method: STANDARD PLATE) is “inactive; negative”; the mutagenic call (Strain/Indicator: TA1537, Metabolic Activation: RAT, LIVER, S-9, AROCLOR 1254, Method: STANDARD PLATE) was “inactive; negative”; the mutagenic call (Strain/Indicator: TA1538, Metabolic Activation: NONE, Method: STANDARD PLATE) was “inactive; negative”; the mutagenic call (Strain/Indicator: TA1538, Metabolic Activation: RAT, LIVER, S-9, AROCLOR 1254, Method: STANDARD PLATE) was “inactive; negative”.

`C=CC(=O)OCCBr`: the mutagenic call reads like this: (Strain/Indicator: TA97, Metabolic Activation: HAMSTER, LIVER, S-9, AROCLOR 1254 (10%), Method: PREINCUBATION) “inactive; negative”; under setting [1], “inactive; negative”; (Strain/Indicator: TA97, Metabolic Activation: RAT, LIVER, S-9, AROCLOR 1254 (10%), Method: PREINCUBATION) “inactive; negative”; (Strain/Indicator: TA98, Metabolic Activation: HAMSTER, LIVER, S-9, AROCLOR 1254 (10%), Method: PREINCUBATION) “inactive; negative”; under setting [2], “inactive; negative”; (Strain/Indicator: TA98, Metabolic Activation: RAT, LIVER, S-9, AROCLOR 1254 (10%), Method: PREINCUBATION) “inactive; negative”. Besides, the mutagenic call (Strain/Indicator: TA100, Metabolic Activation: HAMSTER, LIVER, S-9, AROCLOR 1254 (10%), Method: PREINCUBATION) is “active; positive”; the mutagenic call under setting [4] was “inactive; negative”; the mutagenic call (Strain/Indicator: TA100, Metabolic Activation: RAT, LIVER, S-9, AROCLOR 1254 (10%), Method: PREINCUBATION) is “active; positive”; the mutagenic call (Strain/Indicator: TA1535, Metabolic Activation: HAMSTER, LIVER, S-9, AROCLOR 1254 (10%), Method: PREINCUBATION) is “active; positive”; the mutagenic call under setting [6] was “active; positive”; the mutagenic call (Strain/Indicator: TA1535, Metabolic Activation: RAT, LIVER, S-9, AROCLOR 1254 (10%), Method: PREINCUBATION) was “active; positive”.

`COc1ccc2c3c([nH]c2c1)C(C)=NCC3`: the mutagenic call is “inactive; negative” under setting [1]; “inactive; negative” (Strain/Indicator: TA97, Metabolic Activation: RAT, LIVER, S-9, AROCLOR 1254, Method: PREINCUBATION); “inactive; negative” under setting [2]; “inactive; negative” (Strain/Indicator: TA98, Metabolic Activation: RAT, LIVER, S-9, AROCLOR 1254, Method: PREINCUBATION); “inactive; negative” under setting [4]; “inactive; negative” (Strain/Indicator: TA100, Metabolic Activation: RAT, LIVER, S-9, AROCLOR 1254, Method: PREINCUBATION). In addition, the mutagenic call reads like this: (Strain/Indicator: TA102, Metabolic Activation: NONE, Method: PREINCUBATION) “inactive; negative”; (Strain/Indicator: TA102, Metabolic Activation: RAT, LIVER, S-9, AROCLOR 1254, Method: PREINCUBATION) “inactive; negative”.

Regarding `Nc1c(N=Nc2ccc([N+](=O)[O-])cc2)c(S(=O)(=O)O)cc2c1C(=O)/C(=N\Nc1ccc(-c3ccc(NN=C4C=CC(=O)C=C4)cc3)cc1)C(S(=O)(=O)O)=C2`, the mutagenic call (Strain/Indicator: TA98, Metabolic Activation: HAMSTER, LIVER, S-9, Method: PREINCUBATION (PRIVAL METHOD)) is “active; positive”; the mutagenic call under setting [3] is “inactive; negative”; the mutagenic call (Strain/Indicator: TA98, Metabolic Activation: RAT, LIVER, S-9, PHENOBARBITAL, Method: STANDARD PLATE) is “inactive; negative”; the mutagenic call under setting [5] is “inactive; negative”; the mutagenic call (Strain/Indicator: TA100, Metabolic Activation: RAT, LIVER, S-9, PHENOBARBITAL, Method: STANDARD PLATE) was “inactive; negative”.
